Experimental data published in patent US9675659B2 (Trilogy Therapeutics, Inc., priority 2015, dated 2017).
≈ marks a conversion by molar mass, not a printed value. Read-outs that look alike come from different tables or passages of the source. Starred links: 1 amine or outer side, 2 acyl side, 3 side chain; linkers in the order of their positions; H or OH if unused. Positions of bridges follow the written chain, without caps; N, C: chain ends. Non-standard residues stand in square brackets, D forms with d. Residues, ends and D or L forms follow the SMILES beside them. *: point of attachment. hTyr(3S-OH,4S-OH,3'-OSO3H) = N[C@H](C(=O)O)[C@H](O)[C@@H](O)c1ccc(O)c(OS(=O)(=O)O)c1; pTerphenylCO(4''-OnC5H11) = CCCCCOc1ccc(-c2ccc(-c3ccc(C(=O)*)cc3)cc2)cc1; Orn(4R-OH,5R-OH) = O=C([C@H](C[C@@H](O)[C@@H](O)N[*:3])N[*:1])[*:2]; hTyr(3S-OH,4S-OH) = N[C@H](C(=O)O)[C@H](O)[C@@H](O)c1ccc(O)cc1; Pro(3S-OH,4S-Me) = C[C@H]1CN[C@H](C(=O)O)[C@H]1O; X1 = CCCCCOc1ccc(-c2cc(-c3ccc(C(=O)*)cc3)no2)cc1; Gln(3R-OH) = NC(=O)C[C@@H](O)[C@H](N)C(=O)O; Hyp = O=C(O)[C@@H]1C[C@@H](O)CN1

Tests used:
[1] = rat, 2 mg/kg, cited from earlier work
[2] = test system: Aspergillus fumigatus; conditions: 1691 isolates; cited from earlier work
[3] = test system: Aspergillus flavus; conditions: 432 isolates; cited from earlier work
[4] = test system: Aspergillus terrus; conditions: 385 isolates; cited from earlier work
[5] = test system: Aspergillus niger; conditions: 440 isolates; cited from earlier work
[6] = in vivo; conditions: Sprague-Dawley, rat
Experimental: Tissue specimens (lung, liver and kidney) were collected from three animals per time point at 0.5, 2, 24 and 48 hours and 7 days after dose administration. All tissue specimens were stored frozen at approximately −70° C. until analyzed.
In Vivo Details: Thirty Sprague-Dawley derived rats [Crl:CD®(CD)Br] were obtained from Charles River Laboratories, Inc., Wilmington, Mass., for use in this study. The rats were 52 days of age (approximately 7.5 weeks) upon arrival. One day following receipt, body weights of the rats ranged from 171 g to 213 g. The animals were held in quarantine for 7 days prior to administration of the test article. […] Before being released from quarantine, the animals were given a detailed, hand-held physical examination to ensure their health and suitability as test subjects. The test animals were approximately 8.5 weeks old at the start of the first exposure to the test article.
The resulting solution was aseptically filtered and kept refrigerated between 2-8° C. until used.
Test Article Dosing: The animals were randomized into two groups of 15 animals based on body weight.
Inhalation Exposure Methods:
All study animals surviving to scheduled necropsy were euthanized by an overdose of an intraperitoneal injection of sodium pentobarbital at 35-45 mg/kg. Tissue specimens (lung, liver and kidney) were collected from three animals per time point at 0.5, 2, 24 and 48 hours and 7 days after dose administration. All tissue specimens were stored frozen at approximately −70° C. until analyzed.
After shaking for five minutes, the sample was centrifuged at 4° C. for 10 minutes to remove precipitated proteins and supernatant was transferred to an autosampler tube, diluted with 0.5 mL of water, and vortex-mixed for instrumental analysis.
Subsequently, 100 μL of the supernatant was transferred to a 2 mL centrifuge tube and processed for analysis using the same procedure as for plasma.
Tissue results in ng were converted to g/g using the amount of tissue extracted and the final extract volume.

[7] = test system: Aspergillus nidulans; conditions: 13 isolates; cited from earlier work
[8] = test system: Candida krusei; conditions: 136 isolates; cited from earlier work
[9] = Toxicology observations in the rat inhalation/IV study (mortality, clinical signs, body weight, necropsy); assay type: in vivo; conditions: male rats, nose-only inhalation or intravenous injection, 2 mg/kg
Experimental: A detailed, hand-held physical examination was conducted on all animals once during the quarantine period (prior to randomization). During the treatment period, the animals were observed daily for mortality or evidence of moribundity; these checks were separated by a minimum of four hours. Daily cage-side clinical observations were conducted during exposure, and daily hand-held clinical observations were conducted before and after exposure. Observations included, but were not limited to the following: changes in the skin and fur, eyes, and mucous membranes; effects on the respiratory, circulatory, autonomic and central nervous systems; and effects on somatomotor activity and behavior pattern.
Body Weights and Body Weight Changes: Body weights were determined one day after animal receipt; at randomization; and prior to exposure on Study Day 1, 2, 3 and 7 (as applicable based on scheduled euthanization).

[10] = test system: Aspergillus terrus; conditions: 11 isolates; cited from earlier work
[11] = test system: Aspergillus nidulans; conditions: 192 isolates; cited from earlier work
[12] = test system: Aspergillus flavus; conditions: 13 isolates; cited from earlier work
[13] = test system: Aspergillus fumigatus; conditions: 56 isolates; cited from earlier work
[14] = test system: Aspergillus niger; conditions: 10 isolates; cited from earlier work
[15] = test system: Candida tropicalis; conditions: 625 isolates; cited from earlier work
[16] = test system: Candida albicans; conditions: 2869 isolates; cited from earlier work
[17] = test system: Aspergillus versicolor; conditions: 75 isolates; cited from earlier work
[18] = test system: Candida guilliermondii; conditions: 61 isolates; cited from earlier work
[19] = test system: Candida galbrata; conditions: 747 isolates; cited from earlier work
[20] = test system: Candida parapsilosis; conditions: 759 isolates; cited from earlier work
[21] = cited from earlier work
[22] = rat, intravenous; cited from earlier work

CC[C@H](C)C[C@H](C)CCCCCCCCC(=O)N[C@H]1C[C@@H](O)[C@@H](NCCN)NC(=O)[C@@H]2[C@@H](O)CCN2C(=O)[C@H]([C@H](O)CCN)NC(=O)[C@H]([C@H](O)[C@@H](O)c2ccc(O)cc2)NC(=O)[C@@H]2C[C@@H](O)CN2C(=O)[C@H]([C@@H](C)O)NC1=O [Caspofungin, caspofungin]
Kidney concentration, Stone 2004 (radiolabeled compound) ([1]; 0.5 h): 9.15 µg/g
Liver concentration, Stone 2004 (radiolabeled compound) ([1]; 0.5 h): 5.03 µg/g
Lung concentration, Stone 2004 (radiolabeled compound) ([1]; 0.5 h): 5.12 µg/g
Plasma concentration, Stone 2004 (radiolabeled compound) ([1]; 0.5 h): 11000 ng/mL
Kidney concentration, Stone 2004 (radiolabeled compound) ([1]; 2 h): 10.60 µg/g
Liver concentration, Stone 2004 (radiolabeled compound) ([1]; 2 h): 7.04 µg/g
Lung concentration, Stone 2004 (radiolabeled compound) ([1]; 2 h): 4.50 µg/g
Plasma concentration, Stone 2004 (radiolabeled compound) ([1]; 2 h): 6100 ng/mL
Kidney concentration, Stone 2004 (radiolabeled compound) ([1]; 24 h): 11.40 µg/g
Liver concentration, Stone 2004 (radiolabeled compound) ([1]; 24 h): 22.20 µg/g
Lung concentration, Stone 2004 (radiolabeled compound) ([1]; 24 h): 2.44 µg/g
Plasma concentration, Stone 2004 (radiolabeled compound) ([1]; 24 h): 1740 ng/mL
MEC Average (Mode, most frequent MEC) [2]: 0.25 µg/mL
MEC Range [2]: 0.016 to 32 µg/mL
MEC Average (Mode, most frequent MEC) [3]: 0.06 µg/mL
MEC Range [3]: 0.016 to 32 µg/mL
MEC Average (Mode, most frequent MEC) [4]: 0.06 µg/mL
MEC Range [4]: 0.016 to 2 µg/mL
MEC Average (Mode, most frequent MEC) [5]: 0.06 µg/mL
MEC Range [5]: 0.016 to 2 µg/mL
concentration at 0.5 h ([6]; kidney, inhaled, 2 mg/kg): 160 ng/g
concentration at 2 h ([6]; kidney, inhaled, 2 mg/kg): 160 ng/g
concentration at 24 h ([6]; kidney, inhaled, 2 mg/kg): 160 ng/g
concentration at 48 h ([6]; kidney, inhaled, 2 mg/kg): 120 ng/g
concentration at 168 h ([6]; kidney, inhaled, 2 mg/kg): 20 ng/g
concentration at 0.5 h ([6]; kidney, iv, 2 mg/kg): 500 ng/g
concentration at 2 h ([6]; kidney, iv, 2 mg/kg): 670 ng/g
concentration at 24 h ([6]; kidney, iv, 2 mg/kg): 500 ng/g
concentration at 0.5 h ([6]; liver, inhaled, 2 mg/kg): 90 ng/g
concentration at 2 h ([6]; liver, inhaled, 2 mg/kg): 130 ng/g
concentration at 24 h ([6]; liver, inhaled, 2 mg/kg): 300 ng/g
concentration at 48 h ([6]; liver, inhaled, 2 mg/kg): 180 ng/g
concentration at 168 h ([6]; liver, inhaled, 2 mg/kg): 20 ng/g
concentration at 0.5 h ([6]; liver, iv, 2 mg/kg): 250 ng/g
concentration at 2 h ([6]; liver, iv, 2 mg/kg): 310 ng/g
concentration at 24 h ([6]; liver, iv, 2 mg/kg): 660 ng/g
concentration at 0 h ([6]; lung, inhaled, 2 mg/kg): 10800 ng/g
concentration at 0.5 h ([6]; lung, inhaled, 2 mg/kg): 10800 ng/g
concentration at 2 h ([6]; lung, inhaled, 2 mg/kg): 10400 ng/g
concentration at 24 h ([6]; lung, inhaled, 2 mg/kg): 5310 ng/g
concentration at 39 h ([6]; lung, inhaled, 2 mg/kg): 5420 ng/g
concentration at 48 h ([6]; lung, inhaled, 2 mg/kg): 3370 ng/g
concentration at 78 h ([6]; lung, inhaled, 2 mg/kg): 2710 ng/g
concentration at 117 h ([6]; lung, inhaled, 2 mg/kg): 1350 ng/g
concentration at 156 h ([6]; lung, inhaled, 2 mg/kg): 680 ng/g
concentration at 168 h ([6]; lung, inhaled, 2 mg/kg): 390 ng/g
concentration at 195 h ([6]; lung, inhaled, 2 mg/kg): 340 ng/g
concentration at 273 h ([6]; lung, inhaled, 2 mg/kg): 80 ng/g
concentration at 312 h ([6]; lung, inhaled, 2 mg/kg): 40 ng/g
concentration at 351 h ([6]; lung, inhaled, 2 mg/kg): 20 ng/g
concentration at 0 h ([6]; lung, inhaled, 7.2 mg/kg): 39000 ng/g
concentration at 39 h ([6]; lung, inhaled, 7.2 mg/kg): 19500 ng/g
concentration at 78 h ([6]; lung, inhaled, 7.2 mg/kg): 9750 ng/g
concentration at 117 h ([6]; lung, inhaled, 7.2 mg/kg): 4880 ng/g
concentration at 156 h ([6]; lung, inhaled, 7.2 mg/kg): 2440 ng/g
concentration at 195 h ([6]; lung, inhaled, 7.2 mg/kg): 1220 ng/g
concentration at 273 h ([6]; lung, inhaled, 7.2 mg/kg): 300 ng/g
concentration at 312 h ([6]; lung, inhaled, 7.2 mg/kg): 150 ng/g
concentration at 351 h ([6]; lung, inhaled, 7.2 mg/kg): 80 ng/g
concentration at 0.5 h ([6]; lung, iv, 2 mg/kg): 590 ng/g
concentration at 2 h ([6]; lung, iv, 2 mg/kg): 540 ng/g
concentration at 24 h ([6]; lung, iv, 2 mg/kg): 180 ng/g
concentration at 48 h ([6]; lung, iv, 2 mg/kg): 90 ng/g
concentration at 168 h ([6]; lung, iv, 2 mg/kg): 0 ng/g
concentration at 0.5 h ([6]; plasma, inhaled, 2 mg/kg): 2030 ng/mL
concentration at 24 h ([6]; plasma, inhaled, 2 mg/kg): 230 ng/mL
concentration at 48 h ([6]; plasma, inhaled, 2 mg/kg): 80 ng/mL
concentration at 168 h ([6]; plasma, inhaled, 2 mg/kg): 0 ng/mL
concentration at 0.5 h ([6]; plasma, iv, 2 mg/kg): 11000 ng/mL
concentration at 2 h ([6]; plasma, iv, 2 mg/kg): 7720 ng/mL
concentration at 24 h ([6]; plasma, iv, 2 mg/kg): 800 ng/mL
MIC90 Average (Geometric Mean MIC) [7]: 0.44 µg/mL (≈ 0.402 µM)
MIC90 Range [7]: 0.2 to 4 µg/mL
MIC90 [8]: 0.06 µg/mL (≈ 0.0549 µM)
clinical signs of toxicity [9]: no clinical signs of toxicity
effects on body weight [9]: no effects on body weight
gross necropsy findings [9]: no gross necropsy findings attributable to exposure to the test article
test-article related mortality [9]: no test-article related mortality
MIC90 Average (Geometric Mean MIC) [10]: 0.12 µg/mL (≈ 0.11 µM)
MIC90 Range [10]: 0.06 to .2 µg/mL
MEC Average (Mode, most frequent MEC) [11]: 0.12 µg/mL
MEC Range [11]: 0.032 to 16 µg/mL
MIC90 Average (Geometric Mean MIC) [12]: 0.2 µg/mL (≈ 0.183 µM)
MIC90 Range [12]: 0.06 to 2 µg/mL
MIC90 Average (Geometric Mean MIC) [13]: 0.25 µg/mL (≈ 0.229 µM)
MIC90 Range [13]: 0.12 to 4 µg/mL
MIC90 Average (Geometric Mean MIC) [14]: 0.14 µg/mL (≈ 0.128 µM)
MIC90 Range [14]: 0.06 to 0.5 µg/mL
MIC90 [15]: 0.06 µg/mL (≈ 0.0549 µM)
MIC90 [16]: 0.06 µg/mL (≈ 0.0549 µM)
MEC Average (Mode, most frequent MEC) [17]: 0.12 µg/mL
MEC Range [17]: 0.032 to 2 µg/mL
MIC90 [18]: 2 µg/mL (≈ 1.83 µM)
MIC90 [19]: 0.12 µg/mL (≈ 0.11 µM)
MIC90 [20]: 2 µg/mL (≈ 1.83 µM)

CCCCCOc1ccc(-c2ccc(-c3ccc(C(=O)N[C@H]4C[C@@H](O)[C@@H](O)NC(=O)[C@@H]5[C@@H](O)[C@@H](C)CN5C(=O)[C@H]([C@@H](C)O)NC(=O)[C@H]([C@H](O)[C@@H](O)c5ccc(O)cc5)NC(=O)[C@@H]5C[C@@H](O)CN5C(=O)[C@H]([C@@H](C)O)NC4=O)cc3)cc2)cc1 [anidulafungin] ({pTerphenylCO(4''-OnC5H11)}-[Orn(4R-OH,5R-OH)]T[Hyp][hTyr(3S-OH,4S-OH)]T[Pro(3S-OH,4S-Me)]; lactam 1-C)
time levels are maintained above MICs for common pathogens ([21]; rat tissues): ≥ 72 h
exposure in tissues (liver, lung, spleen, kidney) relative to plasma ([21]; rat): 9-12 fold
time to peak concentrations in tissues ([21]; rat): ≤ 30 min

CCCCCOc1ccc(-c2cc(-c3ccc(C(=O)N[C@H]4C[C@@H](O)[C@@H](O)NC(=O)[C@@H]5[C@@H](O)[C@@H](C)CN5C(=O)[C@H]([C@H](O)CC(N)=O)NC(=O)[C@H]([C@H](O)[C@@H](O)c5ccc(O)c(OS(=O)(=O)O)c5)NC(=O)[C@@H]5C[C@@H](O)CN5C(=O)[C@H]([C@@H](C)O)NC4=O)cc3)no2)cc1 [micafungin] (X1-[Orn(4R-OH,5R-OH)]T[Hyp][hTyr(3S-OH,4S-OH,3'-OSO3H)][Gln(3R-OH)][Pro(3S-OH,4S-Me)]; lactam 1-C)
exposure in kidney relative to plasma [22]: 3.4 fold
exposure in liver relative to plasma [22]: 1.6 fold
exposure in lung relative to plasma [22]: 2.9 fold
